The values that follow come from US7390836B2, “Small molecules used to increase cell death” (priority 1999, dated 2008).

For test [1], the target named is T1, Bcl-xL/Bax heterodimerization in 293 cells (Homo sapiens, UniProt Q07817).
T1 construct: expressed in transfected cells; host or cells: 293 cells
The test is described as follows: FRET between Bcl-xL-CFP and Bax-YFP in intact cells. Type of test: cell-based. Particulars: rank order; for order of relative effects on YFP fluorescence reduction: rough index of cell death. An excerpt:
The effect of the BH3Is on the disruption of the heterodimerization of Bcl-2 family proteins in vivo was next determined. Dimerization of Bcl-2 in immunoprecipitation experiments may represent post-lysis events induced by detergents (Hsu et al., J. Biol. Chem. 272:13829-34, 1997). Therefore, these studies focused on assaying the Bcl-xL dimerization status in intact cells. Recently, the interaction between Bax and Bcl-2 has been studied in intact living cells by fluorescent resonance energy transfer measurements between GFP fusion proteins (Mahajan et al., Nat. Biotechnol. 16:547-52, 1998). This approach was used to monitor the effects of BH3Is on Bcl-xL/Bax heterodimerization in intact cells.
293 cells were transfected with Bcl-xL-CFP and Bax-YFP expression vectors using Lipofectamine Plus (Gibco) or TransLT-1 (PanVera) and 24 hr later were treated with BH3Is. Cells were harvested in PBS supplemented with BH3Is, and fluorescence was determined using a C-60 fluorimeter (PTI) or a Wallac platereader. Fluorescence in the samples separately overexpressing Bax and Bcl-xL was added together and used to estimate the FRET value in the absence of dimerization. The extent of FRET between CFP and YFP was determined as a ratio of fluorescence at 527 nm vs. 475 nm after excitation at 433 nm.

For test [2], the system named is Bak BH3 peptide / Bcl-xL (Bcl-xL/GST, Bcl-xL-His6) interaction. In words: Fluorescence polarization assay, labeled Bak BH3 peptide binding to Bcl-xL fusion protein. Particulars: for order of affinities of BH3Is: overall rank order from FP, NMR, pulldown and SELDI results; for order of decreasing affinity, fluorescence polarization assays: rank order. An excerpt: We have used a fluorescence polarization assay to screen a library of 16,000 chemical compounds (ChemBridge, San Diego, Calif.) to identify small molecules that inhibit the interaction between a peptide corresponding to the BH3 domain of a pro-apoptotic protein and a recombinant Bcl-xL/GST fusion protein. In this assay, an […] peptide corresponding to the BH3 domain of Bak was used. The Bak peptide was labeled with a fluorescent tag, such as OREGON GREEN. Upon binding of the tagged peptide to the Bcl-xL/GST fusion protein, the polarization of light emitted by the tagged peptide is altered. […] Conversely, in a sample in which a compound does inhibit the interaction between the Bak peptide and the Bcl-xL/GST fusion protein the polarization of light emitted by the peptide will not be altered.
A nineteen amino acid Bak peptide, corresponding to the BH3 domain of Bak, with the sequence […] (SEQ ID NO: 2) was labeled with the fluorophore OREGON GREEN according to the manufacturer's instructions (Molecular Probes, Eugene, Oreg.). In addition, a recombinant Bcl-xL/GST fusion protein was generated using conventional techniques known to those skilled in the fields of biochemistry and molecular biology. The interaction between the Bak peptide and the Bcl-xL/GST fusion protein was confirmed.
A screen of approximately 16,000 compounds from the ChemBridge chemical compound library was conducted to identify compounds that disrupt the interaction between the Bak peptide and the Bcl-xL/GST fusion protein. The ability of a compound to disrupt the interaction between the two polypeptides was assessed using a fluorescence polarization assay. The Bak peptide and Bcl-xL/GST fusion protein (15 nM each; dissolved in PBS) were first combined, and then the compound was added. Alternatively, the Bak peptide, Bcl-xL/GST fusion protein, and test compound (5 mg/ml; dissolved in 0.1-0.5 gl of DMSO) may be combined in any order. Normally the unbound Bak polypeptide results in polarization of approximately 40 mP units. Upon binding of the Bcl-xL/GST fusion protein, polarization increased to approximately 100-120 mP units.
In a preferred method, the fluorescence assay was carried out as follows. Bak BH3 peptide (Research Genetics) was labeled using NHS-OREGON GREEN (Molecular Probes) and purified by HPLC. For the initial screening assays, 33 nM of labeled BH3 peptide, 2 μM of GST-Bcl-xL protein, 0.1% bovine gamma globulin (BGG, Sigma) and 1 mM DTT mixed with PBS, pH 7.2 (Gibco) were added into 384 well black plates (Lab Systems) using MULTIDROP (Lab Systems). Small molecules (5 mg/ml in DMSO, ChemBridge) were transferred using plastic 384-pin arrays (Genetix). The plates were incubated for 1-2 hr at 25° C., and the fluorescence polarization assay values were determined using an Analyst plate reader (LJL Biosystems). Reactions containing 16.65 nM of labeled BH3 peptide and 4.2 μM of Bcl-xL-His6 fusion protein, which was previously utilized to characterize BH3/Bcl-xL binding (Sattler et al., Science 275:983-6, 1997) were used for the further fluorescence polarization analyses. Kd and Ki determination was performed as previously described using […] PRISM software package (GraphPad) (Dandliker et al., Methods Enzymol. 74:3-28,1981).
In a further screen, various concentrations of each of the above-identified compounds were evaluated for their potency. A serial dilution of each chemical compound was performed and the fluorescence polarization assay was repeated, as per the primary screen. As a result of the secondary screening, three compounds, chemical compound ID numbers 275805 (BH3I-1; FIG. 1), 282986 (BH3I-1′; FIG. 2), and 175362 (BH3I-2; FIG. 3), collectively termed “BH3Is,” were identified to disrupt the interaction between Bak and the BCL-xL/GST fusion protein. […] Additional homologues of the BH3I-1s (BH3I-1″ and BH3I-1′″) and BH3I-2 (BH3-2″ and BH3I-2″) were also analyzed in the study (FIG. 4). […]
In general terms: In fluorescence polarisation assays a small probe gives low polarisation when free and higher when bound to something large.

Test [3] has as its system BH3/Bcl-xL binding. The test is described as follows: SELDI binding assay, unlabeled Bak BH3 peptide on immobilized Bcl-xL-His6. Particulars: for relative activity in SELDI assay: comparison between compounds. An excerpt:
To test the possibility that BH3Is target the OREGON GREEN moiety of the fluorescently labeled BH3 peptide, a novel BH3/Bcl-xL binding assay using unlabeled BH3 peptide was designed. In this assay Bcl-xL was covalently attached to a surface-enhanced laser desorption/ionization (SELDI) chip, and binding of the unlabelled BH3 peptide to the immobilized protein was monitored by mass spectrometry. Specifically, purified recombinant GST-Bcl-2 and BCL-xL-His6 were coupled through their primary amines to SELDI chip surfaces derivatized with carbonyldiimidazole (Ciphergen). Bak BH3 peptide was then added (in a total volume of 1 μl) for 12 hours at 4° C. in a humidified chamber, to allow binding to each spot of the SELDI chip. The chip was then washed with alternating high and low pH-0.1M sodium acetate with 0.5M NaCl, followed by 0.01M HEPES; pH 7.3. The samples were embedded in α-cyanno-4-hydroxycinnamaic acid matrix and analyzed for mass by MALDI TOF. An average of 100 laser shots at a constant setting were collected over 20 spots in each sample.

Molecules are shown by their SMILES.

T1 sequence (Q07817 whole entry, one chain of several): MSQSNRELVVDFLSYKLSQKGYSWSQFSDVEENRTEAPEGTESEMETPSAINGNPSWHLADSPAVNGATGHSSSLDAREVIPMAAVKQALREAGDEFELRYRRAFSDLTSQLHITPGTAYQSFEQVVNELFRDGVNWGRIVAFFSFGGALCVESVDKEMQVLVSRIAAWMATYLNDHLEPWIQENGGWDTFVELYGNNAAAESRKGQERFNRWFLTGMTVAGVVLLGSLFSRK

On to `CC(C)C(C(=O)O)N1C(=O)C(=Cc2ccc(Br)cc2)SC1=S` (stereo in doubt) [BH3I-1], for which, in test [1], the “order of changes in the FRET ratio” value is “BH3I-2>BH3I-1>BH3I-1″” and the “order of relative effects on YFP fluorescence reduction” value is “BH3I-2>BH3I-I>BH3I-1″”. In test [2], the “order of affinities of BH3Is” value is listed as “BH312′>BH3I-2>BH3I-2″>BH3I-1>BH3I-1′>BH3I-1″>BH3I-1′″” and the “order of decreasing affinity, fluorescence polarization assays” value (“order of decreasing affinity” below) was “BH3I-1>BH3I-1′>BH3I-2′>BH3I-2>BH3I-2″>BH3I-1″”. Moreover, the “effect on BH3 peptide binding to Bcl-xL-modified SELDI surface” value in test [3] is given as “reduction of BH3 binding”.
As for `CC(C)C(C(=O)O)N1C(=O)/C(=C/c2ccccc2)SC1=S` (stereo not shown) [BH3I-1″], in test [1], the “order of changes in the FRET ratio” value is listed as “BH3I-2>BH3I-1>BH3I-1″” and the “order of relative effects on YFP fluorescence reduction” value is “BH3I-2>BH3I-I>BH3I-1″”. Also, in test [2], the “order of affinities of BH3Is” value is reported as “BH312′>BH3I-2>BH3I-2″>BH3I-1>BH3I-1′>BH3I-1″>BH3I-1′″” and the “order of decreasing affinity” value is recorded as “BH3I-1>BH3I-1′>BH3I-2′>BH3I-2>BH3I-2″>BH3I-1″”. Further, the “relative activity in SELDI assay” value in test [3] is “lower potency than BH3I-1”.
For the compound `O=C(Nc1cc(S(=O)(=O)c2ccc(Cl)cc2)ccc1Cl)c1cc(Cl)cc(Br)c1O` [BH3I-2], in test [1], the “order of changes in the FRET ratio” value is recorded as “BH3I-2>BH3I-1>BH3I-1″” and the “order of relative effects on YFP fluorescence reduction” value is listed as “BH3I-2>BH3I-I>BH3I-1″”. In test [2], the “order of affinities of BH3Is” value is listed as “BH312′>BH3I-2>BH3I-2″>BH3I-1>BH3I-1′>BH3I-1″>BH3I-1′″” and the “order of decreasing affinity” value was “BH3I-1>BH3I-1′>BH3I-2′>BH3I-2>BH3I-2″>BH3I-1″”. Further, in test [3], the “effect on BH3 peptide binding to Bcl-xL-modified SELDI surface” value is reported as “reduction of BH3 binding” and the “relative activity in SELDI assay” value was “higher activity than BH3I-1”.
